Values of other authors, collected in US9714250B2, “Crystalline forms of temozolomide and the method for preparing same” (Jiangsu Tasly Diyi Pharmaceutical Co., Ltd., priority 2013, dated 2017).

Settings: heated to approximately 30° C.; in US20050187206; cited from earlier work

Cn1nnc2c(C(N)=O)ncn2c1=O [Form I, Temozolomide]
Crystalline form transformation on heating: transformed into crystalline Form II
